In patent publication US20080119513A1, “Sulfonamide Derivative Selectively Inhibiting Mmp-13” (priority 2004, published 2008):

How the values were obtained:
Assay type in all cases: biochemical
MMP-13 = biological target: T1, MMP-13 (Homo sapiens, UniProt P45452); test: Assay for inhibitory activities on MMPs (fluorogenic peptide substrate), MMP-13
T1 construct: catalytic domain (^104Tyr˜^267Gly) was amplified with RT-PCR; His-tag; enterokinase digestion-site
Experimental: In regard to MMP-13, mRNA was prepared from carcinoma cell SW1353 derived from human cartilage stimulate by IL-1 and TNF, and catalytic domain (^[…]) was amplified with RT-PCR. This was cloned in Escherichia coli expression vector […] inserted with His-tag sequence and enterokinase digestion-site, induced and expressed by IPTG (Isopropyl-β-D-thiogalactopyranoside) and expressed in an insoluble fraction. Isolation of MMP-13 from an insoluble fraction was carried out by dissolving in modifier (6 M urea) by a usual method and purification with metal chelate chromatography (Ni […] Sepharose). And then removing modifier (6 M urea) with dialyze and refolding of the enzyme spontaneously gave activated MMP-13. The enzymatic activity on MMPs was analyzed by the method described in “C. Graham Knight, Frances Willenbrock and Gillian Murphy: A novel coumarin-labelled peptide for sensitive continuous assays of the matrix metalloproteinases: FEBS LETT., 296, (1992), 263-266”. The substrate: MOCAc-[…] was purchased from Peptide Institute, Inc., Osaka, Japan. The measurement of the inhibitory activities (IC50) was carried out by the following four methods; (A) Reaction with substrate, enzyme (MMPs) and inhibitor (B) Reaction with substrate and inhibitor, without enzyme (C) Reaction with substrate and enzyme (MMPs), without inhibitor (D) Reaction with substrate only IC50 values were calculated by using the following formula and each fluorescence values of above four methods (A to D). % inhibition={1-(A-B)/(C-D)}×100 IC50 means the concentration required to inhibit 50% of the enzyme activity. The value of inhibitory activity against MMP-2, MMP-8, MMP-9, MMP-12, and MMP-13 measured by above mentioned methods are shown in Table 25 and 26.

MMP-2 = biological target: T2, MMP-2 (Homo sapiens, UniProt P08253); test: Assay for inhibitory activities on MMPs (fluorogenic peptide substrate), MMP-2
T2 sequence (P08253 110-660): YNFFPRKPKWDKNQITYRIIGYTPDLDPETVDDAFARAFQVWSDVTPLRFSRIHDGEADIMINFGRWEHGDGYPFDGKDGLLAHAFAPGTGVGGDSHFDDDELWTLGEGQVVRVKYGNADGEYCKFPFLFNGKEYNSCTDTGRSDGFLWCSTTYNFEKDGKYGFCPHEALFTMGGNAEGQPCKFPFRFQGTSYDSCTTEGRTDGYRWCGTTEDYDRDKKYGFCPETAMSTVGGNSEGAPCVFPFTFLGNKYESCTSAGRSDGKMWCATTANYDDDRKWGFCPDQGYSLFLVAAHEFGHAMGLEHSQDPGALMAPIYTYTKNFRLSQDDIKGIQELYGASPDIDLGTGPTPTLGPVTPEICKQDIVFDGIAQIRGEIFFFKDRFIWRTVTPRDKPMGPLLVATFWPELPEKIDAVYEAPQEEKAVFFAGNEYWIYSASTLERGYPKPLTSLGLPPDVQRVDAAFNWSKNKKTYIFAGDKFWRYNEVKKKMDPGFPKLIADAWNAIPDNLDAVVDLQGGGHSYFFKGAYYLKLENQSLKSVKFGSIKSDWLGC
Experimental: MMP-2 was purchased from Calbiochem-Novabiochem International, Inc.
(§1) The enzymatic activity on MMPs was analyzed by the method described in “C. Graham Knight, Frances Willenbrock and Gillian Murphy: A novel coumarin-labelled peptide for sensitive continuous assays of the matrix metalloproteinases: FEBS LETT., 296, (1992), 263-266”. The substrate: MOCAc-Pro-Leu-Gly-Leu-A2Pr(DNP)-Ala-Arg-NH2 was purchased from Peptide Institute, Inc., Osaka, Japan. The measurement of the inhibitory activities (IC50) was carried out by the following four methods;
(§2) (A) Reaction with substrate, enzyme (MMPs) and inhibitor
(§3) (B) Reaction with substrate and inhibitor, without enzyme
(§4) (C) Reaction with substrate and enzyme (MMPs), without inhibitor
(§5) (D) Reaction with substrate only
(§6) IC50 values were calculated by using the following formula and each fluorescence values of above four methods (A to D).
(§7) % inhibition={1-(A−B)/(C−D)}×100
(§8) IC50 means the concentration required to inhibit 50% of the enzyme activity.
(§9) The value of inhibitory activity against MMP-2, MMP-8, MMP-9, MMP-12, and MMP-13 measured by above mentioned methods are shown in Table 25 and 26.

MMP-8 = biological target: T3, MMP-8 (Homo sapiens, UniProt P22894); test: Assay for inhibitory activities on MMPs (fluorogenic peptide substrate), MMP-8
T3 construct: In regard to MMP-8, catalytic domain (^99Phe˜^262Gly) was amplified with PCR; His-tag; enterokinase digestion-site
T3 sequence (P22894 99-262): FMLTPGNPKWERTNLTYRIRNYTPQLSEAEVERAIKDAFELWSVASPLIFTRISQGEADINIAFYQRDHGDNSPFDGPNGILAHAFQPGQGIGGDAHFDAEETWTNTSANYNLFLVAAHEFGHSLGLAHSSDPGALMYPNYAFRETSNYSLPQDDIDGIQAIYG
Description: In regard to MMP-8, catalytic domain (^99Phe˜^262Gly) was amplified with PCR using commercial available Human Bone Marrow cDNA. This was cloned in Escherichia coli expression vector pTrc99AHE inserted with His-tag sequence and enterokinase digestion-site, induced and expressed by IPTG (Isopropyl-β-D-thiogalactopyranoside) and expressed in a insoluble fraction (Than F. Ho, M. Walid Qoronfleh, Robert C. Wahl, Trica A. Pulvino, Karen J. Vavra, Joe Falvo, Tracey M. Banks, Patricia G. Brake and Richard B. Ciccarelli: Gene expression, purification and characterization of recombinant human neutrophil collagenase. Gene 146, (1994) 297-301. It was prepared by the method in a slight modification). Isolation of MMP-8 from an insoluble fraction was carried out by dissolving in modifier (6 M urea) by a usual method and purification with metal chelate chromatography. And then removing modifier (6 M urea) with dialysis and refolding of the enzyme spontaneously gave activated MMP-8.
as §1, §2, §3, §4, §5, §6, §7, §8, §9

MMP-9 = MMP-9 (Homo sapiens, UniProt P14780); test: Assay for inhibitory activities on MMPs (fluorogenic peptide substrate), MMP-9
MMP-9, sequence (P14780 107-707): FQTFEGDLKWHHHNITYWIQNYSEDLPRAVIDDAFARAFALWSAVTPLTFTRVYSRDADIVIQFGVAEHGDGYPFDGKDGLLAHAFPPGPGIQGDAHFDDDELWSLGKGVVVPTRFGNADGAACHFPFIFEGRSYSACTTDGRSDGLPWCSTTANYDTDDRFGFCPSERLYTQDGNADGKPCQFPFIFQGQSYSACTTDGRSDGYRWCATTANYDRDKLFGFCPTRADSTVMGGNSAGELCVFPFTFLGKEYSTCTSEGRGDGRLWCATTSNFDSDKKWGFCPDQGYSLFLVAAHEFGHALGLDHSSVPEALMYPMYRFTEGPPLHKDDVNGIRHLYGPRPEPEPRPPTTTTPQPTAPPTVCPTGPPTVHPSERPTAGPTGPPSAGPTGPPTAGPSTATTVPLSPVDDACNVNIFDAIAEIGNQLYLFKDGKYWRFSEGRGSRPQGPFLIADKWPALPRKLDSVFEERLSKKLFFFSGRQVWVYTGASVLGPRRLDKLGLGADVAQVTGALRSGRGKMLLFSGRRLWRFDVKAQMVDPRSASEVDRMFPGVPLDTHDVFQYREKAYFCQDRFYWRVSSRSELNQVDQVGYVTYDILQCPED
Description: MMP-9 was isolated and purified by the procedure of Y. Okada et al. (Yasunori Okada, Yukio Gonoji, Katsumi Naka, Katsuro Tomita, Isao Nakanishi, Kazushi Iwata, Kyoko Yamashita, and Taro Hayakawa: Matrix metalloproteinase 9 (92-kDa gelatinase/type IV collagenase) from HT1080 human fibrosarcoma cells. Purification and activation of the precursor and enzymic properties, J. Biol. Chem., 1992, 267, 21712-21719) in combination with other following methods: 1) Yasunori Okada, Tatsuhisa Morodomi, Jan J, Enghild, Ko Suzuki, Atsushi Yasui, Isao Nakanishi, Guy Salvesen and Hideaki Nagase: Matrix metalloproteinase 2 from human rheumatoid synovial fibroblasts. Purification and activation of the precursor and enzymic properties, Eur. J. Biochem., 1990, 194, 721-730; 2) Robin V Ward, Rosalind M Hembry, John J Reynolds and Gillian Murphy: The purification of tissue inhibitor of metalloproteinase-2 from its 72 kDa progelatinase complex. Biochem. J., 1991, 278, 179-187. In detail, human fibrosarcoma ATCC HT1080 cell line was cultured to confluent in Dulbecco's Modified Medium (DMEM) containing 10% fetal-calf serum at 37° C. for 48 hours. Subsequently, the medium of confluent culture was changed to serum-free DMEM medium. To obtain MMP-9, phorbol-12-myristate-13-acetate (TPA) must be added to this serum-free DMEM medium at a concentration of 50 ng/ml. The TPA-treated medium was centrifuged at 3000 rpm for 15 min, and the supernatant was concentrated to 450 ml by a Toyo-Roshi UP-20 apparatus with an ultrafiltration membrane. Then, proMMP-9 in this concentrated solution was purified by using columns of Gelatin-Sepharose and Concanavalin A-Sepharose. The pool containing proMMP-9 was dialyzed, concentrated (Toyo-Roshi UP-20) and applied to columns of Sephacryl S-200 and Green A matrix for the separation from TIMPs. The obtained proMMP-9 fraction was activated by TPCK-Trypsin (Final conc.: 3 μg/501 React Mix.).
as §1, §2, §3, §4, §5, §6, §7, §8, §9

MMP-12 = biological target: T4, MMP-12 (Homo sapiens, UniProt P39900); test: Assay for inhibitory activities on MMPs (fluorogenic peptide substrate), MMP-12
T4 construct: In regard to MMP-12, catalytic domain (^100Phe˜^263Gly) was amplified with RT-PCR; His-tag; enterokinase digestion-site
T4 sequence (P39900 100-263): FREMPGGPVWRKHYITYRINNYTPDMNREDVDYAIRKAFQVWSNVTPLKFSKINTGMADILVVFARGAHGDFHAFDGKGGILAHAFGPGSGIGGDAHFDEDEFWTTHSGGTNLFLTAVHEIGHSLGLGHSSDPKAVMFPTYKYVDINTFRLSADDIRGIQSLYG
Experimental: In regard to MMP-12, catalytic domain (^100Phe˜^263Gly) was amplified with RT-PCR from Human Placenta Total RNA. This was cloned in Escherichia coli expression vector pTrc99AHE inserted with His-tag sequence and enterokinase digestion-site, induced and expressed by IPTG (Isopropyl-β-D-thiogalactopyranoside) and expressed in an insoluble fraction. Isolation of MMP-12 from an insoluble fraction was carried out by dissolving in modifier (6 M urea) by a usual method and purification with metal chelate chromatography (Ni Chelateing Sepharose). And then removing modifier (6 M urea) with dialysis and refolding of the enzyme spontaneously gave activated MMP-12.
as §1, §2, §3, §4, §5, §6, §7, §8, §9

SMILES	IC50 (MMP-13)	IC50 (MMP-2)	IC50 (MMP-8)	IC50 (MMP-9)	IC50 (MMP-12)
CC(C)[C@@H](NS(=O)(=O)c1ccc(-c2ccc(COc3ccc4ccccc4c3)cc2)cc1)C(=O)O [VII-12]	26.2 nM	3720 nM	140 nM	> 10000 nM	95.7 nM
CC(C)[C@@H](NS(=O)(=O)c1ccc(-c2ccc(NC(=O)c3ccc4ccccc4c3)cc2)cc1)C(=O)O [VI-39]	81.1 nM	664 nM	5400 nM	> 10000 nM	> 10000 nM
O=C(Nc1ccc(-c2ccc(S(=O)(=O)N[C@H](Cc3ccccc3)C(=O)O)cc2)cc1)c1ccc2c(c1)OCO2 [VI-12]	31.1 nM	197 nM	1740 nM	> 10000 nM	334 nM
O=C(Nc1ccc(-c2ccc(S(=O)(=O)N[C@H](Cc3ccccc3)C(=O)O)s2)cc1)c1ccc2ccccc2c1 [VI-51]	22.2 nM	292 nM	> 10000 nM	> 10000 nM	> 10000 nM
COc1ccc2cc(C#Cc3ccc(-c4ccc(S(=O)(=O)N[C@H](C)C(=O)O)cc4)cc3)ccc2c1 [III-17]	5.6 nM	> 10000 nM	> 10000 nM	> 10000 nM	> 10000 nM
COc1cccc(C(=O)Nc2ccc(-c3ccc(S(=O)(=O)N[C@H](C)C(=O)O)cc3)cc2)c1 [VI-16]	77.1 nM	563 nM	1100 nM	> 10000 nM	1020 nM
COc1ccc2cc(C(=O)Nc3ccc(-c4ccc(S(=O)(=O)N[C@H](Cc5ccccc5)C(=O)O)cc4)cc3)ccc2c1 [VI-45]	61.3 nM	> 10000 nM	> 10000 nM	> 10000 nM	> 10000 nM
COc1ccc2cc(C#Cc3ccc(-c4ccc(S(=O)(=O)N[C@@H](CO)C(=O)O)cc4)cc3)ccc2c1 [III-45]	19.3 nM	> 10000 nM	> 10000 nM	> 10000 nM	> 10000 nM
COc1ccc(C[C@H](NS(=O)(=O)c2ccc(-c3ccc(C#Cc4ccc5cc(OC)ccc5c4)cc3)cc2)C(=O)O)cc1 [III-48]	100 nM	> 10000 nM	> 10000 nM	> 10000 nM	> 10000 nM
COc1ccc2cc(C#Cc3ccc(-c4ccc(S(=O)(=O)N[C@H](CCC(=O)O)C(=O)O)cc4)cc3)ccc2c1 [III-27]	2.71 nM	58.9 nM	33.3 nM	> 10000 nM	36.8 nM
O=C(O)[C@@H](CC1CCCCC1)NS(=O)(=O)c1ccc(-c2ccc(C#Cc3ccc4ccccc4c3)cc2)cc1 [III-15]	225 nM	> 10000 nM	7680 nM	> 10000 nM	> 10000 nM
O=C(/C=C/c1ccccc1)Nc1ccc(-c2ccc(S(=O)(=O)N[C@H](Cc3ccccc3)C(=O)O)cc2)cc1 [VI-9]	44.6 nM	178 nM	> 10000 nM	> 10000 nM	> 10000 nM
O=C(Nc1ccc(-c2ccc(S(=O)(=O)N[C@H](Cc3ccccc3)C(=O)O)cc2)cc1)c1ccccc1 [VI-2]	73.6 nM	371 nM	> 10000 nM	> 10000 nM	> 10000 nM
O=C(Nc1ccc(-c2ccc(S(=O)(=O)N[C@H](Cc3ccccc3)C(=O)O)cc2)cc1)c1ccc(F)cc1 [VI-6]	39.4 nM	235 nM	> 10000 nM	> 10000 nM	> 10000 nM
COc1ccc2cc(C#Cc3ccc(-c4ccc(S(=O)(=O)N[C@@H](CCSC)C(=O)O)cc4)cc3)ccc2c1 [III-25]	24.2 nM	2850 nM	89.3 nM	> 10000 nM	117 nM
COc1ccc(C(=O)Nc2ccc(-c3ccc(S(=O)(=O)N[C@H](C)C(=O)O)cc3)cc2)cc1OC [VI-24]	50.1 nM	839 nM	1520 nM	> 10000 nM	443 nM
O=C(Nc1ccc(-c2ccc(S(=O)(=O)N[C@@H](Cc3ccccc3)C(=O)O)cc2)cc1)c1ccc2ccccc2c1 [VI-36]	65.1 nM	> 10000 nM	> 10000 nM	> 10000 nM	7970 nM
COc1ccc2cc(C#Cc3ccc(-c4ccc(S(=O)(=O)N[C@@H](C)C(=O)O)cc4)cc3)ccc2c1 [III-18]	19.9 nM	> 10000 nM	> 10000 nM	> 10000 nM	> 10000 nM
